Assay results published in patent US4424358A, “β-3-Amino nor-tropane compounds” (Delalande S.A., priority 1979, dated 1984).
Like-named read-outs stand apart in the source and are kept apart here.

Columns and labels:
[1] = tested on: apomorphine straightening; assay: antagonism to apomorphine straightening (neuroleptic activity); assay type: in vivo, mice; conditions: Mus musculus, ip, read-out: Apomorphine straightening ED 50
[2] = acute toxicity by intraperitoneal administration; conditions: mouse, in vivo, ip; mice, i.p., estimated lethal dose (method of Miller); read-out: Acute toxicity LD 50
Text: Acute toxicity was studied on mice by intraperitoneal administration, and the estimated lethal doses in accordance with the method described by MILLER and THINTER Proc. Soc. Exper.

CCOc1nc(N)ncc1C(=O)N[C@@H]1C[C@H]2CC[C@@H](C1)N2Cc1ccccc1 [Compound 3]
ED50 [1]: 0.04 mg/kg
LD50 [2]: 300 mg/kg

COc1nc(N)ncc1C(=O)N[C@@H]1C[C@H]2CC[C@@H](C1)N2Cc1ccc(Cl)cc1 [Compound 8, β-3-[5-(2-amino 4-methoxypyrimidinyl)carbonyl]amino N-parachlorobenzyl nor-tropane]
ED50 [1]: 0.035 mg/kg
LD50 [2]: 220 mg/kg

COc1ccc(CN2[C@@H]3CC[C@H]2C[C@H](NC(=O)c2cnc(N)nc2OC)C3)cc1 [Compound 9]
ED50 [1]: 0.01 mg/kg
LD50 [2]: 240 mg/kg

COc1nc(N)ncc1C(=O)N[C@@H]1C[C@H]2CC[C@@H](C1)N2Cc1ccc(C)cc1 [Compound 10]
ED50 [1]: 0.035 mg/kg
LD50 [2]: 325 mg/kg

COc1cc(N)c(Br)cc1C(=O)N[C@@H]1C[C@H]2CC[C@@H](C1)N2Cc1ccccc1 [Compound 16]
ED50 [1]: 0.01 mg/kg
LD50 [2]: 240 mg/kg

COc1cc(N)c(Br)cc1C(=O)N[C@@H]1C[C@H]2CC[C@@H](C1)N2Cc1ccc(F)cc1 [Compound 19, β-3-[(4-amino 5-bromo 2-methoxy)benzoyl]amino N-parafluorobenzyl nor-tropane, chlorhydrate]
ED50 [1]: 0.01 mg/kg
LD50 [2]: 90 mg/kg

COc1cc(N)c(Br)cc1C(=O)N[C@@H]1C[C@H]2CC[C@@H](C1)N2Cc1ccc(Br)cc1 [Compound 20]
ED50 [1]: 0.034 mg/kg
LD50 [2]: > 400 mg/kg

COc1cc(N)c(Br)cc1C(=O)N[C@@H]1C[C@H]2CC[C@@H](C1)N2Cc1cccc(C(F)(F)F)c1 [Compound 21]
ED50 [1]: 0.07 mg/kg
LD50 [2]: 85 mg/kg

COc1cc(N)c(Br)cc1C(=O)N[C@@H]1C[C@H]2CC[C@@H](C1)N2Cc1ccc(Cl)cc1 [Compound 22]
ED50 [1]: 0.021 mg/kg
LD50 [2]: 140 mg/kg

COc1cc(N)c(Br)cc1C(=O)N[C@@H]1C[C@H]2CC[C@@H](C1)N2Cc1ccc(C)cc1 [Compound 23]
ED50 [1]: 0.07 mg/kg
LD50 [2]: > 400 mg/kg

COc1cc(N)c(Br)cc1C(=O)N[C@@H]1C[C@H]2CC[C@@H](C1)N2Cc1cccc(C)c1 [Compound 24]
ED50 [1]: 0.05 mg/kg
LD50 [2]: 160 mg/kg

COc1cc(N)c(Br)cc1C(=O)N[C@@H]1C[C@H]2CC[C@@H](C1)N2Cc1cccc(Cl)c1 [Compound 25]
ED50 [1]: 0.03 mg/kg
LD50 [2]: 100 mg/kg

COc1cc(N)c(Br)cc1C(=O)N[C@@H]1C[C@H]2CC[C@@H](C1)N2Cc1cccc(F)c1 [Compound 26]
ED50 [1]: 0.011 mg/kg
LD50 [2]: 140 mg/kg

COc1cc(N)c(Br)cc1C(=O)N[C@@H]1C[C@H]2CC[C@@H](C1)N2Cc1cccc(Br)c1 [Compound 27]
ED50 [1]: 0.034 mg/kg
LD50 [2]: > 400 mg/kg

COc1cc(N)c(Br)cc1C(=O)N[C@@H]1C[C@H]2CC[C@@H](C1)N2Cc1ccc(Cl)c(Cl)c1 [Compound 28]
ED50 [1]: 0.12 mg/kg
LD50 [2]: > 400 mg/kg

COc1cc(N)c(Br)cc1C(=O)N[C@@H]1C[C@H]2CC[C@@H](C1)N2Cc1cccs1 [Compound 29]
ED50 [1]: 0.012 mg/kg
LD50 [2]: 180 mg/kg

CCc1ccc(CN2[C@@H]3CC[C@H]2C[C@H](NC(=O)c2cc(Br)c(N)cc2OC)C3)cc1 [Compound 30]
ED50 [1]: 0.3 mg/kg
LD50 [2]: 230 mg/kg

COc1cc(N)c(Br)cc1C(=O)N[C@@H]1C[C@H]2CC[C@@H](C1)N2Cc1ccsc1 [Compound 32]
ED50 [1]: 0.05 mg/kg
LD50 [2]: 140 mg/kg

COc1cc(N)c(Br)cc1C(=O)N[C@@H]1C[C@H]2CC[C@@H](C1)N2Cc1ccc(C(F)(F)F)cc1 [Compound 33]
ED50 [1]: 0.19 mg/kg
LD50 [2]: > 400 mg/kg

COc1cc(N)c(Br)cc1C(=O)N[C@@H]1C[C@H]2CC[C@@H](C1)N2CC1CCCCC1 [Compound 35]
ED50 [1]: 0.07 mg/kg
LD50 [2]: 80 mg/kg

COc1nc(N)ncc1C(=O)N[C@@H]1C[C@H]2CC[C@@H](C1)N2Cc1ccc(Br)cc1 [Compound 37]
ED50 [1]: 0.16 mg/kg
LD50 [2]: 170 mg/kg

COc1cc(NC(C)=O)c(Br)cc1C(=O)N[C@@H]1C[C@H]2CC[C@@H](C1)N2Cc1ccccc1 [Compound 40]
ED50 [1]: 0.05 mg/kg
LD50 [2]: 130 mg/kg

COc1cc(NC(=O)C(F)(F)F)c(Br)cc1C(=O)N[C@@H]1C[C@H]2CC[C@@H](C1)N2Cc1ccccc1 [Compound 41]
ED50 [1]: 0.03 mg/kg
LD50 [2]: 225 mg/kg

COc1cc(NC(C)=O)c(Cl)cc1C(=O)N[C@@H]1C[C@H]2CC[C@@H](C1)N2Cc1ccccc1 [Compound 42]
ED50 [1]: 0.05 mg/kg
LD50 [2]: 61 mg/kg

COc1cc(NC(=O)C(F)(F)F)c(Cl)cc1C(=O)N[C@@H]1C[C@H]2CC[C@@H](C1)N2Cc1ccccc1 [Compound 43]
ED50 [1]: 0.03 mg/kg
LD50 [2]: 120 mg/kg

COc1ccc([N+](=O)[O-])cc1C(=O)N[C@@H]1C[C@H]2CC[C@@H](C1)N2Cc1ccccc1 [Compound 48]
ED50 [1]: 0.21 mg/kg
LD50 [2]: 310 mg/kg

COc1ccc(F)cc1C(=O)N[C@@H]1C[C@H]2CC[C@@H](C1)N2Cc1ccccc1 [Compound 49]
ED50 [1]: 0.08 mg/kg
LD50 [2]: 120 mg/kg

COc1ccc(O)cc1C(=O)N[C@@H]1C[C@H]2CC[C@@H](C1)N2Cc1ccccc1 [Compound 51]
ED50 [1]: 0.03 mg/kg
LD50 [2]: 140 mg/kg

COc1cc(OC)c(C(=O)N[C@@H]2C[C@H]3CC[C@@H](C2)N3Cc2ccccc2)cc1OC [Compound 60]
ED50 [1]: 0.027 mg/kg
LD50 [2]: 75 mg/kg

COc1ccc(C(=O)N[C@@H]2C[C@H]3CC[C@@H](C2)N3Cc2ccccc2)c(OC)c1OC [Compound 61]
ED50 [1]: 0.02 mg/kg
LD50 [2]: 80 mg/kg

COc1ccccc1C(=O)N[C@@H]1C[C@H]2CC[C@@H](C1)N2Cc1ccccc1 [Compound 62]
ED50 [1]: 0.04 mg/kg
LD50 [2]: 60 mg/kg

COc1cccc(C(=O)N[C@@H]2C[C@H]3CC[C@@H](C2)N3Cc2ccccc2)c1OC [Compound 64]
ED50 [1]: 0.008 mg/kg
LD50 [2]: 83 mg/kg

COc1cc(N)ccc1C(=O)N[C@@H]1C[C@H]2CC[C@@H](C1)N2Cc1ccccc1 [Compound 67]
ED50 [1]: 0.038 mg/kg
LD50 [2]: 100 mg/kg

COc1ccc(C(=O)N[C@@H]2C[C@H]3CC[C@@H](C2)N3Cc2ccccc2)c(OC)c1 [Compound 68]
ED50 [1]: 0.02 mg/kg
LD50 [2]: 47 mg/kg

COc1cc(N)c(Cl)cc1C(=O)N[C@@H]1C[C@H]2CC[C@@H](C1)N2Cc1ccco1 [Compound 71]
ED50 [1]: 0.11 mg/kg
LD50 [2]: 120 mg/kg

COc1cc(N)c(Cl)cc1C(=O)N[C@@H]1C[C@H]2CC[C@@H](C1)N2Cc1ccsc1 [Compound 72]
ED50 [1]: 0.04 mg/kg
LD50 [2]: 110 mg/kg

COc1cc(N)c(Cl)cc1C(=O)N[C@@H]1C[C@H]2CC[C@@H](C1)N2Cc1cccs1 [Compound 73]
ED50 [1]: 0.02 mg/kg
LD50 [2]: 170 mg/kg

COc1c(C(=O)N[C@@H]2C[C@H]3CC[C@@H](C2)N3Cc2ccccc2)cc(Br)c(N)c1Br [Compound 74]
ED50 [1]: 0.035 mg/kg
LD50 [2]: 250 mg/kg

CCOc1cc(N)c(Br)cc1C(=O)N[C@@H]1C[C@H]2CC[C@@H](C1)N2Cc1ccccc1 [Compound 75]
ED50 [1]: 0.021 mg/kg
LD50 [2]: > 400 mg/kg

COc1cc(OC)cc(C(=O)N[C@@H]2C[C@H]3CC[C@@H](C2)N3Cc2ccccc2)c1 [Compound 83]
ED50 [1]: 0.031 mg/kg
LD50 [2]: 140 mg/kg

CCN1CCCC1CNC(=O)c1cc(S(N)(=O)=O)ccc1OC (stereo not drawn) [SULPIRIDE, reference compound]
ED50 ([1]; mice, i.p.): 37 mg/kg
